Earlier results on two compounds are cited in publication PMC9147171, “Pharmacokinetic/Pharmacodynamic Evaluation of a New Purine-2,6-Dione Derivative in Rodents with Experimental Autoimmune Diseases” (Pharmaceutics, 2022).

One may read the IC50 as the concentration at which inhibition is half-maximal.

Each structure is given as a SMILES string. Where two headings read alike, the source gives them in different places.

For one series, the system named is PDE7A. The settings on record: read-out: IC50 (µM) Against PDE Isoform PDE7A; cited from earlier work.
For series [1] the following is noted: mice; from the authors' previous investigations; cited from earlier work.
For another series, the target named is T1, hrPDE1B (Homo sapiens, UniProt Q01064).
T1 construct: purchased SignalChem, Richmond, Canada
Also on record: method as in PMID 31899535. The settings on record: PDE1B; read-out: IC50 (µM) Against PDE Isoform (CV%) PDE1B; cited from earlier work.

The conditions of series [2]: rats; from the authors' previous investigations; cited from earlier work.
The next series relates to PDE4B. To be noted: read-out: IC50 (µM) Against PDE Isoform PDE4B; cited from earlier work.
The next series deals with T2, hrPDE3A (Homo sapiens, UniProt Q14432).
T2 construct: purchased SignalChem, Richmond, Canada
The arrangement: method as in PMID 31899535. The settings on record: PDE3A; read-out: IC50 (µM) Against PDE Isoform (CV%) PDE3A; cited from earlier work.

T2 sequence (Q14432 whole entry): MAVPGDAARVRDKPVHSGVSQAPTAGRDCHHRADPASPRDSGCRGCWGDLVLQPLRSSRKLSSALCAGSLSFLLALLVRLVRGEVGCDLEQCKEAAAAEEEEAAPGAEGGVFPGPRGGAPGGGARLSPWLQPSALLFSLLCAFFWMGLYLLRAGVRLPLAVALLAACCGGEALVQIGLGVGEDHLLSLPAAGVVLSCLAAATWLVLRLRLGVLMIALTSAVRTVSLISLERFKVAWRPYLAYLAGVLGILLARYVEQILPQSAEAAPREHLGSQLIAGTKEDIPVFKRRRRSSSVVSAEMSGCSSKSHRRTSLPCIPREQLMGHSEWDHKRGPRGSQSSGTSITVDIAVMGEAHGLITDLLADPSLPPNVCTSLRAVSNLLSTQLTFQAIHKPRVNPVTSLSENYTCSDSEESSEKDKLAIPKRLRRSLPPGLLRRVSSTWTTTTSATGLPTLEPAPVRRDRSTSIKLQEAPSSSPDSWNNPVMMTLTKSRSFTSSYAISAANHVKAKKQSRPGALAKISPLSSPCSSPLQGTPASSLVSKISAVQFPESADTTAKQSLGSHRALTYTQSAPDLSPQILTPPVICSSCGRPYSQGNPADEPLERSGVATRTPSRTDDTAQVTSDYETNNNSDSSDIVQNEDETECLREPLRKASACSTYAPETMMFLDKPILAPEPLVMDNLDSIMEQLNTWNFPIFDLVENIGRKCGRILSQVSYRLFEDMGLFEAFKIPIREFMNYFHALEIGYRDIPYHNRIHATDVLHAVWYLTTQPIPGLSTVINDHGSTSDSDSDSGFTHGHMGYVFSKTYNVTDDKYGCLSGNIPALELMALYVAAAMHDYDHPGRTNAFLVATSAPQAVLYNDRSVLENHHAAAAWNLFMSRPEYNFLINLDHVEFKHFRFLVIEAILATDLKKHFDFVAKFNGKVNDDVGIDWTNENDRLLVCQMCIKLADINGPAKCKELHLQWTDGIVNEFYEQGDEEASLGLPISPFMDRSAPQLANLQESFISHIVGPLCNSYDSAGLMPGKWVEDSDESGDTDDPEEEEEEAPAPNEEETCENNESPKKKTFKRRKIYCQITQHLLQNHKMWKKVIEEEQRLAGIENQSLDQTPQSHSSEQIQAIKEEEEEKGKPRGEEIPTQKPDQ
T1 sequence (Q01064 whole entry): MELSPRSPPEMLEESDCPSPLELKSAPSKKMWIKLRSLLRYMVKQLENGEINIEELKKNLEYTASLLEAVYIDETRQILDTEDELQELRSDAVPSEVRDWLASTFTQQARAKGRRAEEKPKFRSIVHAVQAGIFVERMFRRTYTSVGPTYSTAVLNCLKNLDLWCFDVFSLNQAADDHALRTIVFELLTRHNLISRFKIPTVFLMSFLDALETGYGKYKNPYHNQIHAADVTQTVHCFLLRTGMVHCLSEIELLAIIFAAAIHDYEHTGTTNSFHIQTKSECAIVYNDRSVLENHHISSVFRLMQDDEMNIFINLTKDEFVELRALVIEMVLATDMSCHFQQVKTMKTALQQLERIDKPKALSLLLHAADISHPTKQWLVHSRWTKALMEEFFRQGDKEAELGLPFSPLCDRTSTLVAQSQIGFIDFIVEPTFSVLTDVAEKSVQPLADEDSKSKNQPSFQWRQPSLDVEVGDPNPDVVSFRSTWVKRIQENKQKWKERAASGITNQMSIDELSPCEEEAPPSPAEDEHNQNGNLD

As for `Cc1ccc([N+](=O)[O-])cc1S(=O)(=O)N(C)C` [BRL—50481], the IC50 with PDE7A is 2.1 µM.
Turning to `Cn1c(=O)c2c(nc(NCCc3ccccc3)n2CCCC(=O)NN=Cc2ccccc2O)n(C)c1=O` [GRMS-55], the IC50 is 7.3 µM in the series with PDE7A, 2.5 µM on hrPDE1B, 26.9 µM with PDE4B and 13.4 µM at hrPDE3A. Further, the half-life result in series [1] and in series [2] was “around 30 min” in each case.
